Measured values taken from patent US20180072738A1, “SOLVATED FORMS OF A BRUTON'S TYROSINE KINASE INHIBITOR” (Pharmacyclics LLC, priority 2015, published 2018).
Where two headings read alike, the source gives them in different places.

Legend:
[1] = system: OCILy10; assay: Induction of apoptosis in OCI-Ly10 (caspase activation, Annexin-V flow cytometry, sub-G0 fraction); type: cell-based; conditions: increase in sub-G0 fraction
[2] = system: OCI-Ly10; assay: Growth inhibition of OCI-Ly10 (ABC-DLBCL) cells; type: cell-based; conditions: Homo sapiens
[3] = Storage stability of the crystalline form at 40° C./75% RH (XRPD); type: physicochemical; conditions: for crystalline form after storage: storage at 40° C. and 75% RH, duration not stated
Method: X-Ray powder diffraction patterns were collected on a Bruker AXS C2 GADDS or Bruker AXS D8 diffractometer.
X-Ray Powder Diffraction patterns were collected on a Bruker AXS C2 GADDS diffractometer using Cu Ka radiation (40 kV, 40 mA), automated XYZ stage, laser video microscope for auto-sample positioning and a Hi Star 2-dimensional area detector. X-ray optics consists of a single Gobel multilayer mirror coupled with a pinhole collimator of 0.3 mm. A weekly performance check is carried out using a certified standard NIST 1976 Corundum (flat plate). The beam divergence, i.e. the effective size of the X-ray beam on the sample, was approximately 4 mm. A θ-θ continuous scan mode was employed with a sample-detector distance of 20 cm which gives an effective 2θ range of 3.2°-29.7°. Typically the sample would be exposed to the X-ray beam for 120 seconds. The software used for data collection was GADDS for XP/2000 4.1.43 and the data were analysed and presented using Diffrac Plus EVA v15.0.0.0.
X-Ray Powder Diffraction patterns were collected on a Bruker D8 diffractometer using Cu Ka radiation (40 kV, 40 mA), θ-2θ goniometer, and divergence of V4 and receiving slits, a Ge monochromator and a Lynxeye detector. The instrument is performance checked using a certified Corundum standard (NIST 1976). The software used for data collection was Diffrac Plus XRD Commander v2.6.1 and the data were analysed and presented using Diffrac Plus EVA v15.0.0.0. Samples were run under ambient conditions as flat plate specimens using powder as received. The sample was gently packed into a cavity cut into polished, zero-background (510) silicon wafer. The sample was rotated in its own plane during analysis. The details of the data collection are: • Angular range: 2 to 42° 2θ • Step size: 0.05° 2θ • Collection time: 0.5 s/step

## C=CC(=O)N1CCC[C@@H](n2nc(-c3ccc(Oc4ccccc4)cc3)c3c(N)ncnc32)C1 [Compound 1, 1-((R)-3-(4-amino-3-(4-phenoxyphenyl)-1H-pyrazolo[3,4-d]pyrimidin-1-yl)piperidin-1-yl)prop-2-en-1-one]
[1]
  induction of apoptosis: observed
[2]; OCI-Ly10, 1 hour pulse, read-out: EC50 1 hour pulse (growth of OCI-Ly10)
  EC50: 50 nM
[2]; OCI-Ly10, continuous exposure, read-out: EC50 continuous exposure (growth of OCI-Ly10)
  EC50: 10 nM

## C=CC(=O)N1CCC[C@@H](n2nc(-c3ccc(Oc4ccccc4)cc3)c3c(N)ncnc32)C1 [listing 1 of 3 here]
[3]; listed as 1,1,2-trichloroethane solvate of Compound 1
  crystalline form after storage: changes to a Form A

## C=CC(=O)N1CCC[C@@H](n2nc(-c3ccc(Oc4ccccc4)cc3)c3c(N)ncnc32)C1 [listing 2 of 3 here]
[3]; one week storage at 40° C./75% RH, XRPD
  Crystallinity after storage: unaffected

## C=CC(=O)N1CCC[C@@H](n2nc(-c3ccc(Oc4ccccc4)cc3)c3c(N)ncnc32)C1 [listing 3 of 3 here]
[3]; listed as benzyl acetate solvate of Compound 1
  crystalline form after storage: does not change
